Values after ≈ are worked out from the molar mass of the structure shown.
Legend:
E. faecium CTC 492 = test: In vitro MIC bioassay (broth microdilution, 384 well); type: cell-based, Enterococcus faecium; settings: Mueller-Hinton broth, 2.7% DMSO
Method: (§1) Minimal inhibitory concentrations against a selection of Gram-positive indicator organisms (MICs) were determined according to Clinical and Laboratory Standards Institute protocols by microdilution tests using in a 384 well format. The indicator strains were incubated in TSB medium over night until OD600-0.4, then diluted to OD600=0.1 in TSB medium and further 45× in assay medium (Mueller-Hinton broth, Difco). Inoculated medium was distributed into assay plates. Inoculated wells were added a 2× dilution series of either isolated compound or vancomycin (reference) diluted in DMSO, giving a final DMSO concentration in each well of 2.7%, and final concentrations of active compound between 0 and 540 μg/ml (23 different concentrations). Four parallels were assayed for each compound and concentration. 0.5 mg of the compound produced by strain M1152ΔmatAB (P08-G05_C16) was purified on preparative HPLC, and the pure compound was tested in bioassay against a panel of strains. The indicator organisms were M. luteus ATCC 9341, Staphylococcus aureus ATCC 29213, Staphylococcus aureus ATCC 43300 (MRSA), Enterococcus faecium CCUG 37832, Enterococcus faecium CTC 492.

E. faecium CCUG 37832 = test: as above; type: cell-based, Enterococcus faecium; settings: Mueller-Hinton broth, 2.7% DMSO
Method: as §1

SMILES: CN[C@H](CC(C)C)C(=O)N[C@H]1C(=O)N[C@@H](CC(N)=O)C(=O)N[C@H]2C(=O)N[C@H]3C(=O)N[C@H](C(=O)N[C@H](C(=O)O)c4cc(O)cc(O)c4-c4cc3ccc4O)[C@H](O)c3ccc(c(Cl)c3)Oc3cc2cc(c3O[C@@H]2O[C@H](CO)[C@@H](O)[C@H](O)[C@H]2O[C@H]2C[C@](C)(N)[C@H](O)[C@H](C)O2)Oc2ccc(cc2Cl)[C@H]1O [Vancomycin, vancomycin]
- MIC70: E. faecium CTC 492 (E. faecium CTC 492): 1.06 µg/mL (≈ 0.731 µM)
- MIC70: E. faecium CCUG 37832 (E. faecium CCUG 37832): 270 µg/mL (≈ 186 µM)

Reference: patent publication US20260109688A1, “NOVEL ANTIBIOTIC COMPOUND” (SINTEF TTO AS, priority 2022, published 2026)
